Experimental data taken from PubChem BioAssay AID1996.
In brackets after ≈: the same amount, converted by molar mass.

Conditions: buffer; pH 7.4; 200.0 µM

SMILES | solubility kinetic
Cc1ccc(CNC(=O)C2CCCC2)cc1 | 27.5 µg/mL (≈ 127 µM)
O=C(O)c1ccc(Cl)c(NCc2ccncc2)c1 | > 39.4 µg/mL
CCNc1nc(SC(C)C(=O)OC)nc(N(C)C)n1 (stereo not drawn) | 30 µg/mL (≈ 105 µM)
Cc1cc(SC(C)C(=O)O)nc2ccccc12 (stereo not drawn) | > 37.1 µg/mL
Cc1cccc(Nc2c3c(nc4ccccc24)CCC3)c1.Cl | 44.9 µg/mL
CC(CNC(=O)CCc1ccccc1)NC(=O)CCc1ccccc1 (stereo not drawn) | 19 µg/mL (≈ 56.1 µM)
CC(NC(=O)c1ccc(N)cc1)c1ccccc1 (stereo not drawn) | > 36 µg/mL
CCCCn1cnc2c(oc3nc4c(cc32)CCCC4)c1=O | 20.6 µg/mL (≈ 69.3 µM)
OCCNC(=S)NCc1ccccc1 | 31.5 µg/mL (≈ 150 µM)
S=c1[nH]c2cc(Cl)c3cccnc3c2o1 | > 35.5 µg/mL
CN(CC(=O)Nc1cccc(F)c1)C(=O)CC1CCCC1 | > 43.9 µg/mL
COc1ccc(-c2cn(-c3ccc(C)c(Cl)c3)c(=S)[nH]2)cc1OC | 11.9 µg/mL (≈ 33 µM)
COc1ccccc1OCC(=O)Nc1ccncc1 | > 38.7 µg/mL
CCN(CCNC(=O)c1ccc(C#N)cc1)c1cccc(C)c1 | > 46.1 µg/mL
COc1ccc(/C=C/c2noc(-c3ccccc3OC(C)=O)n2)cc1 | 0.6 µg/mL (≈ 1.78 µM)
CC(C)[C@H](NC(=O)c1ccccc1)C(=O)NCCc1ccccc1 | 10.3 µg/mL (≈ 31.7 µM)
CC1CCN(C(=O)c2ccccc2NC(=O)c2cccs2)CC1 | > 49.3 µg/mL
O=C(COc1ncnc2ccccc12)NCCc1ccc(F)cc1 | 41.9 µg/mL (≈ 129 µM)
COc1ccc(CNC(=O)CN2C(=O)NC3(CCCCCCC3)C2=O)cc1 | 23.4 µg/mL (≈ 62.7 µM)
Cc1ccc(C(=O)COC(=O)C(C)N2C(=O)C3C4C=CC(C4)C3C2=O)cc1C (stereo not drawn) | 55.5 µg/mL (≈ 146 µM)
CS(=O)(=O)N1CCC(C(=O)Nc2ccc(Cl)cc2)CC1 | 13.4 µg/mL (≈ 42.3 µM)
CCC(C)NC(=O)c1cc2c(=O)n3ccccc3nc2s1 (stereo not drawn) | 33 µg/mL (≈ 109 µM)

SMILES | solubility kinetic
O=C1CCN2C=Nc3cccc4ccc1c2c34 | 33.2 µg/mL (≈ 149 µM)
N#Cc1ccc(NC(=O)CCNC(=O)c2ccco2)cc1Cl | 5 µg/mL (≈ 15.7 µM)
Cc1cccc(C)c1NC(=O)CN(C1CCCCC1)S(C)(=O)=O | > 50.8 µg/mL
COc1ccc(/C(C)=N/NC(=O)CNC(=O)c2cccnc2)cc1 | > 49 µg/mL
CCOc1ccccc1NC(=O)Nc1cc(S(=O)(=O)N(C)C)ccc1C | 0.6 µg/mL (≈ 1.59 µM)
Cc1cc(C)nc(SCc2c(F)cccc2Cl)n1 | < 0.3 µg/mL
Cc1ccc(NCC(=O)Nc2ccc(Br)cc2)cc1C | 3.7 µg/mL (≈ 11.1 µM)
CCOc1cccc(C=NCCc2ccc(OC)c(OC)c2)c1O | 45.4 µg/mL (≈ 138 µM)
CCOC(=O)c1cccc(NC(=S)NCc2ccc(C)cc2)c1 | 0.4 µg/mL (≈ 1.22 µM)
O=C(O)CN1CCN(Cc2ccc(F)cc2)C1=O | > 37.8 µg/mL
Cc1nonc1NC(=O)CSc1nc2ccc(Cl)cc2[nH]1 | 36.4 µg/mL (≈ 112 µM)
O=[N+]([O-])c1cccc(NC(=S)N2CCc3ccccc3C2)c1 | 1.3 µg/mL (≈ 4.15 µM)
O=C(CSCc1c(F)cccc1Cl)NCCc1ccccc1 | 40.2 µg/mL (≈ 119 µM)
O=C1CCC(C(=O)NCc2ccccc2)N1 (stereo not drawn) | 30.8 µg/mL (≈ 141 µM)
OC(CNCc1ccccc1Cl)COc1ccc(F)cc1 (stereo not drawn) | > 46.5 µg/mL
CC(=O)c1sc(C(C)(C)C)cc1NC(=O)c1ccccc1C(=O)O | > 51.8 µg/mL
CCN(Cc1ccncc1)C(=O)c1ccco1 | 29.4 µg/mL (≈ 128 µM)
CC(NC(=S)NC1CCC(C(C)(C)C)CC1)c1ccccc1 (stereo not drawn) | < 0.3 µg/mL
O=C(NCCCSc1ccccc1)c1ccc(=O)[nH]c1 | > 43.3 µg/mL
CC(=O)N1CCN(S(=O)(=O)c2ccc3c(c2)CCC(=O)N3)CC1 | > 50.6 µg/mL
Oc1ccc(Br)cc1CNc1ccccn1 | 3.4 µg/mL (≈ 12.2 µM)
O=C(CSc1ccsc1[N+](=O)[O-])NCc1ccccc1 | 9 µg/mL (≈ 29.2 µM)

SMILES | solubility kinetic
COc1ccc2[nH]c(-c3ccccc3)cc2c1 | < 0.5 µg/mL
COc1cc(OC)c(CN2CCCN(C)CC2)cc1Br | 44.9 µg/mL (≈ 131 µM)
CSCc1cc(N(C)c2ccccc2)nc(-c2ccccn2)n1 | 42.8 µg/mL (≈ 133 µM)
Clc1ccccc1NC1=NCCCS1 | > 34 µg/mL
Cc1ccc2cccc(N)c2n1 | 19 µg/mL (≈ 120 µM)
Cc1ccnc(NC(=O)Cc2ccc(F)cc2)n1 | > 36.8 µg/mL
COc1ccc(N2CC(NC(=O)N3CCc4ccccc43)CC2=O)cc1OC (stereo not drawn) | > 57.2 µg/mL
CC12CC3CC(C)(C1)CC(C(=O)NCc1ccncc1)(C3)C2 | > 44.8 µg/mL
CC(Cc1c[nH]c2ccccc12)NC(N)=O (stereo not drawn) | > 32.6 µg/mL
CC1Cc2ccccc2N1C(=S)NC1CCCC1 (stereo not drawn) | 13.7 µg/mL (≈ 52.6 µM)
Oc1ccc(-c2nccc(-c3ccc(Br)cc3)n2)cc1 | 0.4 µg/mL (≈ 1.22 µM)
O=C1CC(N2CCC(c3nc4ccccc4o3)CC2)C(=O)N1 (stereo not drawn) | 43.1 µg/mL (≈ 144 µM)
Cc1cc(C)cc(NC(=O)Nc2ccc3c(c2)CCC3)c1 | < 0.3 µg/mL
CC1CN(C(=O)COC(=O)Cc2c(Cl)cccc2Cl)CC(C)O1 (stereo not drawn) | > 54 µg/mL
Cc1nc(Nc2ccc3c(c2)OCCO3)c2c(C)c(C)sc2n1 | 3.6 µg/mL (≈ 11 µM)
Cn1c(N)c(C(=O)COC(=O)c2ccc(-c3ccccc3)cc2)c(=O)n(C)c1=O | 6.8 µg/mL (≈ 17.3 µM)
O=C(N/N=C/c1ccoc1)c1ccccc1F | > 34.8 µg/mL
C#CCN1C(=O)C2(OCCO2)c2ccccc21 | > 34.4 µg/mL
COc1ccc(C(=O)CN2CCN(c3cc(C)nc4ccccc34)CC2)cc1 | 45.9 µg/mL (≈ 122 µM)
COc1ccc(Cl)cc1C(=O)NC(=S)Nc1nc(C)cc(C)n1 | 0.4 µg/mL (≈ 1.14 µM)
O=C(COC(=O)Cc1ccsc1)Nc1cccc(F)c1 | > 44 µg/mL
Cc1ccc(C)c2sc(NC(=O)CN3C(=O)CCC3=O)nc12 | 45.5 µg/mL (≈ 143 µM)

SMILES | solubility kinetic
CC(C)(C)OC(=O)NCCC(=O)N/N=C/c1cccc2cccnc12 | > 51.4 µg/mL
CC(C)(C)C(=O)NC(=O)Nc1ccccc1C(F)(F)F | 3.3 µg/mL (≈ 11.4 µM)
COC(=O)C1CCN(C(=O)CN2C(=O)NC(CC(C)C)C2=O)CC1 (stereo not drawn) | > 50.9 µg/mL
Cn1c(Cl)cnc1C(O)(c1ccccc1)c1ccccc1 | 10.2 µg/mL (≈ 34.1 µM)
CC1=C/C(=C\C=C(C#N)C#N)N(C)c2ccccc21 | 0.8 µg/mL (≈ 3.23 µM)
COc1cccc(CC(=O)OCC(=O)NCc2ccc3c(c2)OCO3)c1 | > 53.6 µg/mL
COc1ccccc1OCc1nc(C#N)c(N2CCCC2)o1 | 39.1 µg/mL (≈ 131 µM)
CC(CNS(=O)(=O)c1ccc(Br)cc1)CN(C)C (stereo not drawn) | > 50.3 µg/mL
N#Cc1cccc(NC(=O)CCNC(=O)c2ccccc2Cl)c1 | > 49.2 µg/mL
COc1ccc(C(=O)N(Cc2ccccc2)c2cccc(C)c2)cc1 | 15.8 µg/mL (≈ 47.7 µM)
CC(C)NC(=S)N(CCc1ccncc1)C(C)C | 27.4 µg/mL (≈ 103 µM)
COc1cc(CC(=O)OCC(=O)NC2CCCCCC2)cc(OC)c1OC | > 56.9 µg/mL
O=C(CSc1ncnc2ccccc12)NCc1ccc2c(c1)OCO2 | 10.1 µg/mL (≈ 28.6 µM)
C=CC[N+]1(C)C2CCC1CC(O)C2.[Br-] (stereo not drawn) | > 39.3 µg/mL
Br.CC(Cc1ccc(O)cc1)NCC(O)c1cc(O)cc(O)c1 (stereo not drawn) | > 57.6 µg/mL
O=C(NNC(=O)c1cccnc1Cl)c1ccc(F)cc1 | > 44.1 µg/mL
CN(C)S(=O)(=O)c1ccc(Cl)c(C(=O)OCC(=O)c2ccco2)c1 | > 55.8 µg/mL
Cc1cc(NC(=O)C2CC(=O)N(c3cccc(C)c3C)C2)no1 (stereo not drawn) | > 47 µg/mL
CCOC(=O)C(=CNc1ccccc1N1CCOCC1)C(=O)OCC | 45.6 µg/mL (≈ 131 µM)
CC1=C(Nc2ccc(C(=O)O)cc2)C(=O)c2ccccc2C1=O | > 46.1 µg/mL
O=C(CCS(=O)(=O)c1ccccc1)Nc1ccc(S(=O)(=O)Nc2nccs2)cc1 | 23.6 µg/mL (≈ 52.3 µM)
COc1ccc(NC(=S)NCCCN2CCCC2)cc1Cl | > 49.2 µg/mL
